What was measured:
Assay type in all cases: cell-based, Escherichia coli
[1] = test system: tac promoter (GFP expression) in E. coli CL182; assay: GFP expression from the IPTG responsive tac promoter in adhered CL182; conditions: without IPTG versus with IPTG (0.2 μM) in Luria broth
Description: (§1) The strains were mixed and grown in the presence of selective antibiotics (tetracycline, ampicillin or chloramphenicol) and the effects were visualised using the IN Cell Analyzer.
(§2) E. coli cultures were grown in batch culture at 37° C. for 16 hours under selective pressure. Cells were pelleted by centrifugation, washed and resuspended in cold PBS. OD600 mn was normalised (to 1) for both cultures and solutions were diluted ten fold in cold PBS. Cells (100 μl) were allowed to settle and adhere to the surface of a Packard microtitre plate (Packard #6005182) at 4° C. for 1 hour. Adhered E. coli were washed twice with PBS (100 μl). Luria broth (100 μl) with or without IPTG (0.2 μM), and ampicillin (100 μg/ml), tetracycline (10 μg/ml) and chloramphenicol (34 μg/ml) were added to adhered cells and incubated at 37° C. for 4 hours and 16 hours. Cells were washed twice with PBS and incubated for 10 minutes in Hoechst 33342 (0.1 μM in PBS). Cells were washed in PBS and imaged sequentially using the UV (365 nm) and blue (488 nm) laser lines to excite Hoechst 33342 and GFP respectively. […]
(§3) The images were then analysed using the algorithms described in FIGS. 7 to 14. […] In addition, the overlap between green and blue fluorescent biofilm was calculated in 3D.

[2] = test system: XL1-blue and CL182 cells; assay: Differential 3D analysis of mixed adhered E. coli cultures grown with selective antibiotics; conditions: for inhibition of biofilm development: summary statement referring to FIGS. 17 and 18
Description: as §1
E. coli cultures were grown in batch culture at 37° C. for 16 hours under selective pressure. Cells were pelleted by centrifugation, washed and resuspended in cold PBS. OD600 mn was normalised (to 1) for both cultures and solutions were diluted ten fold in cold PBS. Cells (100 μl) were allowed to settle and adhere to the surface of a Packard microtitre plate (Packard #6005182) at 4° C. for 1 hour. Adhered E. coli were washed twice with PBS (100 μl). Luria broth (100 μl) with or without IPTG (0.2 μM), and ampicillin (100 μg/ml), tetracycline (10 μg/ml) and chloramphenicol (34 μg/ml) were added to adhered cells and incubated at 37° C. for 4 hours and 16 hours. Cells were washed twice with PBS and incubated for 10 minutes in Hoechst 33342 (0.1 μM in PBS). Cells were washed in PBS and imaged sequentially using the UV (365 nm) and blue (488 nm) laser lines to excite Hoechst 33342 and GFP respectively. Emission light was captured using the 450BP65 and 565BP50 filters and collected as 12 bit images; 24 slices were acquired per condition with 1 μm spacing between them.
The images were then analysed using the algorithms described in FIGS. 7 to 14. The voxel dimensions were established prior to conducting the experiment using sub-resolution and super-resolution beads. The analysis thus provides data on the amount of biofilm in both colour planes in three dimensions as described previously. In addition, the overlap between green and blue fluorescent biofilm was calculated in 3D.

[3] = test system: E. coli CL182; assay: Differential 3D analysis of adhered E. coli cultures (confocal imaging, adhered culture volume); conditions: Luria broth, chloramphenicol 34 μg/ml, 37° C., 4 hours and 16 hours
Description: as §1, §2, §3

[4] = test system: E. coli XL1-blue; assay: as above; conditions: Luria broth, chloramphenicol 34 μg/ml, 37° C., 4 hours and 16 hours
Description: as §1, §2, §3

Row | Compound | reduction in the expression of GFP from the tac promoter by CL182 in the absence of IPTG [1] | differential inhibition of growth of XL1-blue and CL182 cells ([2]; ampicillin 100 μg/ml, tetracycline 10 μg/ml, 37° C., 4 hours and 16 hours, XL1-blue tetracycline resistant, CL182 ampicillin resistant) | inhibition of biofilm development [2] | inhibition of growth of CL182 [3] | inhibition of growth of XL1-blue [4]
1 | CC(C)S[C@@H]1O[C@H](CO)[C@H](O)[C@H](O)[C@H]1O [IPTG] | ~25% |  |  |  | 
2 | CC1(C)S[C@@H]2[C@H](NC(=O)[C@H](N)c3ccccc3)C(=O)N2[C@H]1C(=O)O [ampicillin] |  | Differential inhibition | differentially inhibit |  | 
3 | O=C(N[C@H](CO)[C@H](O)c1ccc([N+](=O)[O-])cc1)C(Cl)Cl [chloramphenicol] |  |  | differentially inhibit | strongly inhibited | strongly inhibited

— US20060275847A1, “Method for assessing biofilms” (priority 2002, published 2006)
